This note sets out measurements from the supplement of paper PMC11208160.

A short description of this data set: recombinant barcode read abundance after kanamycin selection (control-corrected) (log10(CPM+1)); higher = more efficient recombination; sequences stand for … in AGTGCAGAGAAAATCGGCCAGTTTTCTCTGCCTGCAGTCCGCATGCCGT…ATTTATGCAGCGGACTGCCTTTCTCCCAAAGTGATAAACCGGACAGTATCATGGACCGGTTTTCCCGGTAATCCGTATTTGCAAGGTTGGTTTCACT; site = the 11-nt target. An outline of the steps: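 Two replicates per condition were plated: chloramphenicol/ampicillin LB agar for the control, and chloramphenicol/ampicillin/kanamycin with 0.1 mM IPTG for selection. The pooled E. coli screen behind them paired targets with IS621 bridge RNA target-binding loops. Recombination efficiency is expressed from averaged, control-corrected barcode counts per million at recombinant junctions, as log10(CPM+1).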
On to “CGGTCCCAATGGGTTCTAACCTGTTGCCAAG [CGGTCCCCTTG_LTGcore_AA_RTGcore_CT] (site CGGTCCCCTTG) (LTG core: AA, RTG core: CT)”, for which the “recombinant barcode read abundance (log10)” value was determined as 0.3.

Take “CGGTCCCAATGGGTTCTAACCTGTTGCCATT [CGGTCCCCTTG_LTGcore_AA_RTGcore_AA] (site CGGTCCCCTTG) (LTG core: AA, RTG core: AA)”: the “recombinant barcode read abundance (log10)” value was determined as 0.0857.

For the sequence “CGGTCCCACTGGGTTCTAACCTGTTGCCAAG [CGGTCCCCTTG_LTGcore_AC_RTGcore_CT] (site CGGTCCCCTTG) (LTG core: AC, RTG core: CT)”, the “recombinant barcode read abundance (log10)” value amounted to 0.0364.

For “CGGTCCCATTGGGTTCTAACCTGTTGCCAAT [CGGTCCCCTTG_LTGcore_AT_RTGcore_AT] (site CGGTCCCCTTG) (LTG core: AT, RTG core: AT)”, the “recombinant barcode read abundance (log10)” value worked out at 0.494.

As to “CGGTCCCCATGGGTTCTAACCTGTTGCCAAG [CGGTCCCCTTG_LTGcore_CA_RTGcore_CT] (site CGGTCCCCTTG) (LTG core: CA, RTG core: CT)”, the “recombinant barcode read abundance (log10)” value worked out at 0.51.

Take “CGGTCCCCCTGGGTTCTAACCTGTTGCCAGG [CGGTCCCCTTG_LTGcore_CC_RTGcore_CC] (site CGGTCCCCTTG) (LTG core: CC, RTG core: CC)”: the “recombinant barcode read abundance (log10)” value stood at 0.0887.

With “CGGTCCCCGTGGGTTCTAACCTGTTGCCAAG [CGGTCCCCTTG_LTGcore_CG_RTGcore_CT] (site CGGTCCCCTTG) (LTG core: CG, RTG core: CT)”, the “recombinant barcode read abundance (log10)” value is 0.38.

For the sequence “CGGTCCCCTTGGGTTCTAACCTGTTGCCAGA [CGGTCCCCTTG_LTGcore_CT_RTGcore_TC] (site CGGTCCCCTTG) (LTG core: CT, RTG core: TC)”, the “recombinant barcode read abundance (log10)” value was 0.0215.

“CGGTCCCCTTGGGTTCTAACCTGTTGCCAGG [CGGTCCCCTTG_LTGcore_CT_RTGcore_CC] (site CGGTCCCCTTG) (LTG core: CT, RTG core: CC)”: the “recombinant barcode read abundance (log10)” value came to 0.129.

“CGGTCCCCTTGGGTTCTAACCTGTTGCCAGT [CGGTCCCCTTG_LTGcore_CT_RTGcore_AC] (site CGGTCCCCTTG) (LTG core: CT, RTG core: AC)”: the “recombinant barcode read abundance (log10)” value came to 0.258.

Consider “CGGTCCCGATGGGTTCTAACCTGTTGCCAAG [CGGTCCCCTTG_LTGcore_GA_RTGcore_CT] (site CGGTCCCCTTG) (LTG core: GA, RTG core: CT)”, for which the “recombinant barcode read abundance (log10)” value came to 0.197.

On to “CGGTCCCGATGGGTTCTAACCTGTTGCCATC [CGGTCCCCTTG_LTGcore_GA_RTGcore_GA] (site CGGTCCCCTTG) (LTG core: GA, RTG core: GA)”, for which the “recombinant barcode read abundance (log10)” value was 0.3.

As for “CGGTCCCGGTGGGTTCTAACCTGTTGCCAAG [CGGTCCCCTTG_LTGcore_GG_RTGcore_CT] (site CGGTCCCCTTG) (LTG core: GG, RTG core: CT)”, the “recombinant barcode read abundance (log10)” value was 0.0912.

As to “CGGTCCCGTTGGGTTCTAACCTGTTGCCAAG [CGGTCCCCTTG_LTGcore_GT_RTGcore_CT] (site CGGTCCCCTTG) (LTG core: GT, RTG core: CT)”, the “recombinant barcode read abundance (log10)” value stood at 0.292.

With “GAGCCCAAATGGGTTCTAACCTGTTGCCTTT [GAGCCCACTAG_LTGcore_AA_RTGcore_AA] (site GAGCCCACTAG) (LTG core: AA, RTG core: AA)”, the “recombinant barcode read abundance (log10)” value was determined as 0.102.

With “GAGCCCAACTGGGTTCTAACCTGTTGCCTAG [GAGCCCACTAG_LTGcore_AC_RTGcore_CT] (site GAGCCCACTAG) (LTG core: AC, RTG core: CT)”, the “recombinant barcode read abundance (log10)” value was 0.135.

Regarding “GAGCCCAAGTGGGTTCTAACCTGTTGCCTAG [GAGCCCACTAG_LTGcore_AG_RTGcore_CT] (site GAGCCCACTAG) (LTG core: AG, RTG core: CT)”, the “recombinant barcode read abundance (log10)” value came to 0.0502.

Consider “GAGCCCAATTGGGTTCTAACCTGTTGCCTAG [GAGCCCACTAG_LTGcore_AT_RTGcore_CT] (site GAGCCCACTAG) (LTG core: AT, RTG core: CT)”, for which the “recombinant barcode read abundance (log10)” value is 0.204.

“GAGCCCACATGGGTTCTAACCTGTTGCCTTG [GAGCCCACTAG_LTGcore_CA_RTGcore_CA] (site GAGCCCACTAG) (LTG core: CA, RTG core: CA)”: the “recombinant barcode read abundance (log10)” value amounted to 0.49.

Turning to “GAGCCCACCTGGGTTCTAACCTGTTGCCTAG [GAGCCCACTAG_LTGcore_CC_RTGcore_CT] (site GAGCCCACTAG) (LTG core: CC, RTG core: CT)”, the “recombinant barcode read abundance (log10)” value was determined as 0.29.

Take “GAGCCCACGTGGGTTCTAACCTGTTGCCTCG [GAGCCCACTAG_LTGcore_CG_RTGcore_CG] (site GAGCCCACTAG) (LTG core: CG, RTG core: CG)”: the “recombinant barcode read abundance (log10)” value turned out to be 0.282.

On to “GAGCCCACTTGGGTTCTAACCTGTTGCCTAA [GAGCCCACTAG_LTGcore_CT_RTGcore_TT] (site GAGCCCACTAG) (LTG core: CT, RTG core: TT)”, for which the “recombinant barcode read abundance (log10)” value was found to be 0.912.

For “GAGCCCACTTGGGTTCTAACCTGTTGCCTAC [GAGCCCACTAG_LTGcore_CT_RTGcore_GT] (site GAGCCCACTAG) (LTG core: CT, RTG core: GT)”, the “recombinant barcode read abundance (log10)” value worked out at 0.369.

As to “GAGCCCACTTGGGTTCTAACCTGTTGCCTAG [GAGCCCACTAG_LTGcore_CT_RTGcore_CT] (site GAGCCCACTAG) (LTG core: CT, RTG core: CT)”, the “recombinant barcode read abundance (log10)” value came out at 1.45.

With “GAGCCCACTTGGGTTCTAACCTGTTGCCTCT [GAGCCCACTAG_LTGcore_CT_RTGcore_AG] (site GAGCCCACTAG) (LTG core: CT, RTG core: AG)”, the “recombinant barcode read abundance (log10)” value is 0.

For “GAGCCCACTTGGGTTCTAACCTGTTGCCTTG [GAGCCCACTAG_LTGcore_CT_RTGcore_CA] (site GAGCCCACTAG) (LTG core: CT, RTG core: CA)”, the “recombinant barcode read abundance (log10)” value was 0.835.

Turning to “GAGCCCACTTGGGTTCTAACCTGTTGCCTTT [GAGCCCACTAG_LTGcore_CT_RTGcore_AA] (site GAGCCCACTAG) (LTG core: CT, RTG core: AA)”, the “recombinant barcode read abundance (log10)” value was found to be 0.37.

On to “GAGCCCAGGTGGGTTCTAACCTGTTGCCTCC [GAGCCCACTAG_LTGcore_GG_RTGcore_GG] (site GAGCCCACTAG) (LTG core: GG, RTG core: GG)”, for which the “recombinant barcode read abundance (log10)” value is 0.596.

Take “GAGCCCAGTTGGGTTCTAACCTGTTGCCTAC [GAGCCCACTAG_LTGcore_GT_RTGcore_GT] (site GAGCCCACTAG) (LTG core: GT, RTG core: GT)”: the “recombinant barcode read abundance (log10)” value stood at 0.0734.

With “GAGGCCTAATGGGTTCTAACCTGTTGCCATT [GAGGCCTCTTG_LTGcore_AA_RTGcore_AA] (site GAGGCCTCTTG) (LTG core: AA, RTG core: AA)”, the “recombinant barcode read abundance (log10)” value amounted to 0.223.

Take “GAGGCCTACTGGGTTCTAACCTGTTGCCAAG [GAGGCCTCTTG_LTGcore_AC_RTGcore_CT] (site GAGGCCTCTTG) (LTG core: AC, RTG core: CT)”: the “recombinant barcode read abundance (log10)” value is 0.0351.

Consider “GAGGCCTACTGGGTTCTAACCTGTTGCCAGT [GAGGCCTCTTG_LTGcore_AC_RTGcore_AC] (site GAGGCCTCTTG) (LTG core: AC, RTG core: AC)”, for which the “recombinant barcode read abundance (log10)” value was 0.0631.

“GAGGCCTATTGGGTTCTAACCTGTTGCCAAG [GAGGCCTCTTG_LTGcore_AT_RTGcore_CT] (site GAGGCCTCTTG) (LTG core: AT, RTG core: CT)”: the “recombinant barcode read abundance (log10)” value is 0.196.

For the sequence “GAGGCCTATTGGGTTCTAACCTGTTGCCAAT [GAGGCCTCTTG_LTGcore_AT_RTGcore_AT] (site GAGGCCTCTTG) (LTG core: AT, RTG core: AT)”, the “recombinant barcode read abundance (log10)” value was determined as 0.122.

On to “GAGGCCTCATGGGTTCTAACCTGTTGCCAAG [GAGGCCTCTTG_LTGcore_CA_RTGcore_CT] (site GAGGCCTCTTG) (LTG core: CA, RTG core: CT)”, for which the “recombinant barcode read abundance (log10)” value is 0.318.

“GAGGCCTGATGGGTTCTAACCTGTTGCCAAG [GAGGCCTCTTG_LTGcore_GA_RTGcore_CT] (site GAGGCCTCTTG) (LTG core: GA, RTG core: CT)”: the “recombinant barcode read abundance (log10)” value was determined as 0.0459.

In the case of “GAGGCCTGCTGGGTTCTAACCTGTTGCCAAG [GAGGCCTCTTG_LTGcore_GC_RTGcore_CT] (site GAGGCCTCTTG) (LTG core: GC, RTG core: CT)”, the “recombinant barcode read abundance (log10)” value is 0.235.

With “GAGGCCTGTTGGGTTCTAACCTGTTGCCAAG [GAGGCCTCTTG_LTGcore_GT_RTGcore_CT] (site GAGGCCTCTTG) (LTG core: GT, RTG core: CT)”, the “recombinant barcode read abundance (log10)” value was found to be 0.586.

With “GAGGCCTTATGGGTTCTAACCTGTTGCCAAG [GAGGCCTCTTG_LTGcore_TA_RTGcore_CT] (site GAGGCCTCTTG) (LTG core: TA, RTG core: CT)”, the “recombinant barcode read abundance (log10)” value was determined as 0.145.

For the sequence “GAGGCCTTGTGGGTTCTAACCTGTTGCCAAG [GAGGCCTCTTG_LTGcore_TG_RTGcore_CT] (site GAGGCCTCTTG) (LTG core: TG, RTG core: CT)”, the “recombinant barcode read abundance (log10)” value was 0.0876.

On to “GAGTCCAACTGGGTTCTAACCTGTTGCGTAG [GAGTCCACTAC_LTGcore_AC_RTGcore_CT] (site GAGTCCACTAC) (LTG core: AC, RTG core: CT)”, for which the “recombinant barcode read abundance (log10)” value stood at 0.282.

In the case of “GAGTCCAAGTGGGTTCTAACCTGTTGCGTAG [GAGTCCACTAC_LTGcore_AG_RTGcore_CT] (site GAGTCCACTAC) (LTG core: AG, RTG core: CT)”, the “recombinant barcode read abundance (log10)” value was determined as 0.075.

Consider “GAGTCCACATGGGTTCTAACCTGTTGCGTAG [GAGTCCACTAC_LTGcore_CA_RTGcore_CT] (site GAGTCCACTAC) (LTG core: CA, RTG core: CT)”, for which the “recombinant barcode read abundance (log10)” value is 0.829.
